Results as given in patent US3993754A (priority 1974, dated 1976).
Where two headings read alike, the source gives them in different places. *1 amine or outer side, *2 acyl side, *3 side chain or, on linkers, in order; H or OH if unused. Where a SMILES comes first, the peptide text is derived from it. Bridges are numbered along the chain shown (N, C = ends). Roman numbers before positions name the chains, in order. [ ]: non-standard residue; d: D form. Actinocin(9to1) = Cc1c2oc3c(C)ccc(C(=O)[*:1])c3nc-2c(C(=O)[*:2])c(N)c1=O; NMeV = CN[C@H](C(=O)O)C(C)C; Sar = CNCC(=O)O

Experiments:
E.A. cells = assay: Light and electron microscopic examination of E.A. tumor cells after treatment; assay type: in vivo, mouse; details: 1 mg/kg (2 mg/kg in the first case), 1 hour to 5 days after treatment
Procedure: Electron microscopic studies of tissue cells were also conducted. For the electron microscopic studies, a mouse was inoculated with E.A. cells in the manner described above. Five days after the inoculation, liposomes containing actinomycin D at a concentration of 2 mg/kg were injected intraperitoneally. At intervals of 1, 6, 12 and 24 hours after the liposome injection, 0.2 ml of ascites fluid was aspirated from the mouse abdominal cavity with a syringe. The fluid was centrifuged and the pellet of E.A. cells was fixed and processed for examination in an electron microscope. […] Light and electron microscopic examination of E.A. tumor cells was also carried out 1 hour to 5 days after treatment with liposome-encapsulated and nonencapsulated actinomycin D at a dose of 1 mg/kg. […] There was an increase in lipid droplets, lyosomes and autophagic vacuoles and the ribosomes were clumped into distinct clusters. Fewer dividing cells were seen, at least after 24 hours post-treatment.

[1] = mice
Procedure: Female CF No. 1 (Carworth Farms) mice, 3 months of age, weighing between 27 and 29 grams, were used in each instance in these experiments. For toxicity studies, groups of 15 or 20 mice were given actinomycin D at different levels, either in the nonencapsulated or in the liposome-encapsulated forms. Toxicity of actinomycin D was tested by both intravenous and intraperitoneal injection. Experiments were carried out to test the therapeutic efficacy of the encapsulated actinomycin D against Ehrlich ascites (E. A.) tumor cells in vivo. In Experiment I, mice recieved 20 × 10^6 E.A. cells by intraperitoneal injection. After 5 days, separate groups were treated with one of the following: (1) 0.4 ml of 8 mM calcium chloride, (2) nonencapsulated actinomycin D (0.75 mg/kg), or (3) liposome-encapsulated actinomycin D (0.75 mg/kg). In Experiment II, two groups of 10 mice were similarly inoculated. Treatment of one group was begun after 3 days with 0.5 mg/kg of encapsulated actinomycin D, followed by injection on 4 consecutive days with 0.25 mg/kg. All injections were given intraperitoneally, in a volume of 0.4 ml in Experiment I, 0.2 ml in Experiment II.

[2] = tested on: Ehrlich ascites (E. A.) tumor cells; assay: Therapeutic efficacy against Ehrlich ascites tumor cells in vivo (survival time); set-up: species or system mice; details: Experiment I: single i.p. treatment 0.75 mg/kg, 5 days after inoculation of 20 × 10^6 E.A. cells; control 7.4 ± 3.11 days
Procedure: Referring to FIG. 1, there is illustrated the therapeutic effect of liposome-encapsulated actinomycin D on the survival of mice bearing E.A. tumor following single treatments given at 5 days after inoculation of 20 × 10^6 E.A. cells. A control is represented by line 11 on the graph, liposome-encapsulated actinomycin D at 0.75 mg/kg represented by line 12 and nonencapsulated actinomycin D at 0.75 mg/kg represented by line 13.
Referring to FIG. 2, there is shown graphically the therapeutic effect of liposome-encapsulated actinomycin D on the survival of mice bearing E.A. tumor with multiple daily treatments starting at day 3 after inoculation with 20 × 10^6 E.A. cells. In FIG. 2, the control is represented by line 14, liposome-encapsulated actinomycin D, first dose 0.50 mg/kg followed by four consecutive injections of 0.25 mg/kg, is represented by line 15. As is readily apparent from the graph, the increase in survival time after mutliple injections of encapsulated actinomycin D was even more impressive: 7.3 ± 2.26 days for the control versus 17.6 ± 2.17 days for the encapsulated actinomycin D. All of the control animals died before the first death occurred in the treatment group. In a separate experiment, it was observed that injection of liposomes prepared with KCl instead of actinomycin D had no effect on survival time.

Cc1c2oc3c(C)ccc(C(=O)N[C@@H]4C(=O)N[C@H](C(C)C)C(=O)N5CCC[C@H]5C(=O)N(C)CC(=O)N(C)[C@@H](C(C)C)C(=O)O[C@@H]4C)c3nc-2c(C(=O)N[C@@H]2C(=O)N[C@H](C(C)C)C(=O)N3CCC[C@H]3C(=O)N(C)CC(=O)N(C)[C@@H](C(C)C)C(=O)O[C@@H]2C)c(N)c1=O [actinomycin D] (I: T[dV]P[Sar][NMeV] / II: T[dV]P[Sar][NMeV]; ester I:1-I:C, II:1-II:C; linker I:N-II:N via Actinocin(9to1))
morphological damage of E.A. cells (E.A. cells): Significantly fewer E. A. cells were damaged
LD50 ([1]; given intravenously): 0.43 ± 0.04 mg/kg
LD50 ([1]; intraperitoneal injection): 0.59 ± 0.17 mg/kg
survival of some of the decedents ([1]; intraperitoneal injection): ≤ 14 days
average survival time of the decedents ([1]; intravenous, 0.3 mg/kg): 3.5 days
decedents out of 20 injected ([1]; intravenous, 0.3 mg/kg): 8
time within which most of the deaths occurred ([1]; intravenous, doses of 0.5 mg/kg and above): ≤ 24 h
survival time after treatment [2]: slightly, but not significantly, less than the controls
